Measurements published in PubChem BioAssay (NCI).
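Here, GI50 denotes the concentration required for 50% inhibition of growth. Definition used: TGI = concentration required for complete inhibition of growth.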

Assays:
Assay in all cases: NCI anticancer screen, dose series, 384-well format
NCI-H23 lung = test system: NCI-H23 lung
T-47D breast = test system: T-47D breast
OVCAR-8 ovarian = test system: OVCAR-8 ovarian
OVCAR-3 ovarian = test system: OVCAR-3 ovarian
MCF7 breast = test system: MCF7 breast
SF-295 CNS = test system: SF-295 CNS
SW-620 colon = test system: SW-620 colon
HL-60(TB) leukemia = test system: HL-60(TB) leukemia
MDA-MB-468 breast = test system: MDA-MB-468 breast
NCI-H322M lung = test system: NCI-H322M lung
HS 578T breast = test system: HS 578T breast
LOX IMVI melanoma = test system: LOX IMVI melanoma
HCT-15 colon = test system: HCT-15 colon
MDA-MB-435 melanoma = test system: MDA-MB-435 melanoma
MOLT-4 leukemia = test system: MOLT-4 leukemia
K-562 leukemia = test system: K-562 leukemia
NCI-H460 NSCLC = test system: NCI-H460 NSCLC
IGROV1 ovarian = test system: IGROV1 ovarian
EKVX NSCLC = test system: EKVX NSCLC
UO-31 renal = test system: UO-31 renal
MALME-3M melanoma = test system: MALME-3M melanoma
A498 renal = test system: A498 renal
HT29 colon = test system: HT29 colon
SF-539 CNS = test system: SF-539 CNS
NCI/ADR-RES ovarian = test system: NCI/ADR-RES ovarian
SNB-75 CNS = test system: SNB-75 CNS
BT-549 breast = test system: BT-549 breast
M14 melanoma = test system: M14 melanoma
SK-MEL-5 melanoma = test system: SK-MEL-5 melanoma
CCRF-CEM leukemia = test system: CCRF-CEM leukemia
HOP-62 NSCLC = test system: HOP-62 NSCLC
OVCAR-5 ovarian = test system: OVCAR-5 ovarian
UACC-62 melanoma = test system: UACC-62 melanoma
A549 NSCLC = test system: A549 NSCLC
HOP-92 NSCLC = test system: HOP-92 NSCLC
SR leukemia = test system: SR leukemia
NCI-H226 lung = test system: NCI-H226 lung
U251 glioblastoma = test system: U251 glioblastoma
RPMI-8226 leukemia = test system: RPMI-8226 leukemia
SK-MEL-28 melanoma = test system: SK-MEL-28 melanoma
ACHN renal = test system: ACHN renal
TK-10 renal = test system: TK-10 renal
UACC-257 melanoma = test system: UACC-257 melanoma
COLO 205 colon = test system: COLO 205 colon
DU-145 prostate = test system: DU-145 prostate
NCI-H522 lung = test system: NCI-H522 lung
MDA-MB-231 breast = test system: MDA-MB-231 breast

Q: Which GI50 (NCI-H23 lung) does the source give for `CC(=O)N1CC(F)(F)c2c(Sc3ncc(N4CCC5(CC4)COC[C@H]5N)nc3N)cccc21` here?
A: Its GI50 is 2.06 µM.

Q: And the TGI (NCI-H23 lung)?
A: The TGI was 15.2 µM.

Q: What about the GI50 (T-47D breast) of the same molecule?
A: Its GI50 is 11.5 µM.

Q: And the TGI (T-47D breast)?
A: Its TGI is 26.3 µM.

Q: And the GI50 (OVCAR-8 ovarian)?
A: The GI50 was 11.9 µM.

Q: And the TGI (OVCAR-8 ovarian)?
A: Its TGI is 30.8 µM.

Q: And the GI50 (OVCAR-3 ovarian)?
A: Its GI50 is 14.1 µM.

Q: What about the TGI (OVCAR-3 ovarian) of the same molecule?
A: Its TGI is 30.7 µM.

Q: And the GI50 (MCF7 breast)?
A: Its GI50 is 0.0453 µM.

Q: And the TGI (MCF7 breast)?
A: The TGI was 11.4 µM.

Q: And the GI50 (SF-295 CNS)?
A: Its GI50 is 15.5 µM.

Q: What about the TGI (SF-295 CNS) of the same molecule?
A: Its TGI is 31.2 µM.

Q: What about the GI50 (SW-620 colon) of the same molecule?
A: The GI50 was 11.5 µM.

Q: And the TGI (SW-620 colon)?
A: The TGI was 23.9 µM.

Q: And the GI50 (HL-60(TB) leukemia)?
A: The GI50 was 10 µM.

Q: What about the TGI (HL-60(TB) leukemia) of the same molecule?
A: Its TGI is 21.6 µM.

Q: What about the GI50 (MDA-MB-468 breast) of the same molecule?
A: The GI50 was 1.52 µM.

Q: What about the TGI (MDA-MB-468 breast) of the same molecule?
A: The TGI was 8.19 µM.

Q: What about the GI50 (NCI-H322M lung) of the same molecule?
A: The GI50 was 2.08 µM.

Q: And the TGI (NCI-H322M lung)?
A: Its TGI is 27.7 µM.

Q: What about the GI50 (HS 578T breast) of the same molecule?
A: The GI50 was 13.9 µM.

Q: What about the TGI (HS 578T breast) of the same molecule?
A: Its TGI is 29.8 µM.

Q: And the GI50 (LOX IMVI melanoma)?
A: The GI50 was 12.4 µM.

Q: And the TGI (LOX IMVI melanoma)?
A: Its TGI is 25 µM.

Q: What about the GI50 (HCT-15 colon) of the same molecule?
A: The GI50 was 16.9 µM.

Q: And the TGI (HCT-15 colon)?
A: The TGI was 31.8 µM.

Q: What about the GI50 (MDA-MB-435 melanoma) of the same molecule?
A: The GI50 was 29.1 µM.

Q: And the TGI (MDA-MB-435 melanoma)?
A: Its TGI is 91.7 µM.

Q: What about the GI50 (MOLT-4 leukemia) of the same molecule?
A: The GI50 was 14.1 µM.

Q: And the TGI (MOLT-4 leukemia)?
A: Its TGI is 27.2 µM.

Q: And the GI50 (K-562 leukemia)?
A: Its GI50 is 0.774 µM.

Q: What about the TGI (K-562 leukemia) of the same molecule?
A: The TGI was 13.9 µM.

Q: And the GI50 (NCI-H460 NSCLC)?
A: Its GI50 is 18.6 µM.

Q: What about the TGI (NCI-H460 NSCLC) of the same molecule?
A: Its TGI is 34.6 µM.

Q: What about the GI50 (IGROV1 ovarian) of the same molecule?
A: Its GI50 is 6.38 µM.

Q: What about the TGI (IGROV1 ovarian) of the same molecule?
A: Its TGI is 24.5 µM.

Q: And the GI50 (EKVX NSCLC)?
A: The GI50 was 6.02 µM.

Q: And the TGI (EKVX NSCLC)?
A: The TGI was 43.1 µM.

Q: What about the GI50 (UO-31 renal) of the same molecule?
A: Its GI50 is 6.39 µM.

Q: What about the TGI (UO-31 renal) of the same molecule?
A: The TGI was 20.3 µM.

Q: What about the GI50 (MALME-3M melanoma) of the same molecule?
A: The GI50 was 8.55 µM.

Q: And the TGI (MALME-3M melanoma)?
A: Its TGI is 20.8 µM.

Q: And the GI50 (A498 renal)?
A: The GI50 was 2.75 µM.

Q: What about the TGI (A498 renal) of the same molecule?
A: Its TGI is 20.8 µM.

Q: And the GI50 (HT29 colon)?
A: Its GI50 is 3.75 µM.

Q: What about the TGI (HT29 colon) of the same molecule?
A: The TGI was 12.7 µM.

Q: What about the GI50 (SF-539 CNS) of the same molecule?
A: Its GI50 is 8.31 µM.

Q: And the TGI (SF-539 CNS)?
A: The TGI was 21.1 µM.

Q: And the GI50 (NCI/ADR-RES ovarian)?
A: Its GI50 is 16.3 µM.

Q: And the TGI (NCI/ADR-RES ovarian)?
A: The TGI was 56.8 µM.

Q: What about the GI50 (SNB-75 CNS) of the same molecule?
A: The GI50 was 5.83 µM.

Q: And the TGI (SNB-75 CNS)?
A: The TGI was 29.1 µM.

Q: What about the GI50 (BT-549 breast) of the same molecule?
A: Its GI50 is 4.68 µM.

Q: And the TGI (BT-549 breast)?
A: Its TGI is 22.1 µM.

Q: What about the GI50 (M14 melanoma) of the same molecule?
A: Its GI50 is 10.4 µM.

Q: And the TGI (M14 melanoma)?
A: The TGI was 22.4 µM.

Q: What about the GI50 (SK-MEL-5 melanoma) of the same molecule?
A: The GI50 was 15.7 µM.

Q: What about the TGI (SK-MEL-5 melanoma) of the same molecule?
A: The TGI was 29.2 µM.

Q: What about the GI50 (CCRF-CEM leukemia) of the same molecule?
A: Its GI50 is 15.3 µM.

Q: What about the TGI (CCRF-CEM leukemia) of the same molecule?
A: Its TGI is 28.6 µM.

Q: What about the GI50 (HOP-62 NSCLC) of the same molecule?
A: The GI50 was 13.7 µM.

Q: What about the TGI (HOP-62 NSCLC) of the same molecule?
A: The TGI was 30.9 µM.

Q: And the GI50 (OVCAR-5 ovarian)?
A: Its GI50 is 18.1 µM.

Q: What about the TGI (OVCAR-5 ovarian) of the same molecule?
A: The TGI was 57.3 µM.

Q: What about the GI50 (UACC-62 melanoma) of the same molecule?
A: Its GI50 is 12.5 µM.

Q: And the TGI (UACC-62 melanoma)?
A: The TGI was 25.6 µM.

Q: And the GI50 (A549 NSCLC)?
A: Its GI50 is 14.1 µM.

Q: And the TGI (A549 NSCLC)?
A: The TGI was 35.2 µM.

Q: And the GI50 (HOP-92 NSCLC)?
A: The GI50 was 2.17 µM.

Q: What about the TGI (HOP-92 NSCLC) of the same molecule?
A: The TGI was 14.2 µM.

Q: What about the GI50 (SR leukemia) of the same molecule?
A: Its GI50 is 2.35 µM.

Q: What about the TGI (SR leukemia) of the same molecule?
A: The TGI was 6.03 µM.

Q: What about the GI50 (NCI-H226 lung) of the same molecule?
A: The GI50 was 2.48 µM.

Q: What about the TGI (NCI-H226 lung) of the same molecule?
A: Its TGI is 41.9 µM.

Q: And the GI50 (U251 glioblastoma)?
A: Its GI50 is 12.7 µM.

Q: What about the TGI (U251 glioblastoma) of the same molecule?
A: Its TGI is 26.6 µM.

Q: What about the GI50 (RPMI-8226 leukemia) of the same molecule?
A: Its GI50 is 3.87 µM.

Q: What about the TGI (RPMI-8226 leukemia) of the same molecule?
A: The TGI was 15.5 µM.

Q: What about the GI50 (SK-MEL-28 melanoma) of the same molecule?
A: The GI50 was 13.1 µM.

Q: And the TGI (SK-MEL-28 melanoma)?
A: The TGI was 26.2 µM.

Q: And the GI50 (ACHN renal)?
A: The GI50 was 6.61 µM.

Q: And the TGI (ACHN renal)?
A: The TGI was 27.1 µM.

Q: What about the GI50 (TK-10 renal) of the same molecule?
A: The GI50 was 4.9 µM.

Q: And the TGI (TK-10 renal)?
A: The TGI was 19.2 µM.

Q: What about the GI50 (UACC-257 melanoma) of the same molecule?
A: Its GI50 is 14.4 µM.

Q: And the TGI (UACC-257 melanoma)?
A: The TGI was 27.6 µM.

Q: And the GI50 (COLO 205 colon)?
A: The GI50 was 16.6 µM.

Q: And the TGI (COLO 205 colon)?
A: Its TGI is 32 µM.

Q: And the GI50 (DU-145 prostate)?
A: The GI50 was 19.1 µM.

Q: What about the TGI (DU-145 prostate) of the same molecule?
A: Its TGI is 63.1 µM.

Q: What about the GI50 (NCI-H522 lung) of the same molecule?
A: Its GI50 is 1.56 µM.

Q: What about the TGI (NCI-H522 lung) of the same molecule?
A: Its TGI is 14.5 µM.

Q: What about the GI50 (MDA-MB-231 breast) of the same molecule?
A: The GI50 was 15.3 µM.

Q: What about the TGI (MDA-MB-231 breast) of the same molecule?
A: The TGI was 41.4 µM.
